The values that follow come from patent US8802664B2 (Bioproject, priority 2010, dated 2014).

Where two headings read alike, the source gives them in different places.

For the assay, the target named is T1, human H4 receptor (Homo sapiens, UniProt Q9H3N8).
T1 construct: expressed in transfected cells
Description: [3H]Histamine binding on membranes of CHO cells stably expressing human H4 receptor. The protocol:
CHO cells stably expressing human H4 receptor were grown until sub-confluence and centrifuged at 300 g 15 minutes at 4° C. Pellets were resuspended in buffer I Tris-HCl 50 mM, MgCl2 10 mM, NaCl 140 mM, pH=7.4 supplemented by a 1/50 dilution of a mix of protease inhibitors. The obtained suspension is stirred gently and submitted to a […] exerted through a syringe. The cell lysate is then centrifuged at 300 g 15 minutes at 4° C. in order to eliminate nucleus and cell scraps. The obtained supernatant was then centrifuged at 48000 g for 30 minutes at 4° C. The final pellet is resuspended in buffer I with a potter homogenizer. Aliquots were frozen in liquid nitrogen and stored until use at −80° C. Protein content is measured by the Bradford method.
Defreezed membranes were diluted at a final concentration of 20 μg/180 μL/well in a binding buffer containing 50 mM Tris/HCl, 0.5 mM EDTA, pH=7.4 and distributed in 96 well polystyrene microplate. [^3H] […] Non specific binding was estimated in the presence of 10 μM BP1.2404 (JNJ 7777120). The reaction was terminated by filtration through GF/B filters pre-soaked 2 hours at 4° C. in […]. Filters were rinsed 3 times with 250 μl of ice cold incubation binding buffer.
The filter-bound radioactivity was measured in a liquid scintillation counter Microbeta TRILUX® with 50 μl of scintillation fluid.
The hH4 binding investigated by use of [^3H]

T1 sequence (Q9H3N8 whole entry): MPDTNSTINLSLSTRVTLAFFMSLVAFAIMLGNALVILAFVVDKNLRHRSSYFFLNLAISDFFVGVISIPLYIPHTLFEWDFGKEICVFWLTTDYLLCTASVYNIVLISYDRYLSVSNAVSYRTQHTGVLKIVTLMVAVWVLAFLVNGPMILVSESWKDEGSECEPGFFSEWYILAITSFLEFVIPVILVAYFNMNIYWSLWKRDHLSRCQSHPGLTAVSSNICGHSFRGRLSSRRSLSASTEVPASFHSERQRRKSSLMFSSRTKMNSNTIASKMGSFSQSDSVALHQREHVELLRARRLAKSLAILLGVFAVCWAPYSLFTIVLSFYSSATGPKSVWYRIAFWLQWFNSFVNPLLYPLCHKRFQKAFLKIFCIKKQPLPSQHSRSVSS

`CCOC(=O)NCCCCC#Cc1cccc(C(OC2CCN(C)CC2)c2nc3ccccc3n2C)c1` (stereo not drawn) [Example 549, ethyl (6-{3-[(1-methyl-1H-benzimidazol-2-yl)(1-methylpiperidin-4-yloxy)methyl]phenyl}hex-5-ynyl)carbamate] had a Ki or IC50 activity class below 1000 nM.
Same read-out and setting: the value for `CN1CCC(OC(c2nc3ccccc3[nH]2)c2cc(Cl)ccc2F)CC1` (stereo not drawn) [Example 496] was below 300 nM; that for `CN1CCC(OC(c2cccc(OCCCCO)c2)c2nc3ccccc3s2)CC1` (stereo not drawn) [Example 266, 4-{3-[benzothiazol-2-yl(1-methylpiperidin-4-yloxy)methyl]phenoxy}butan-1-ol] was below 300 nM.
`CN1CCC(OC(c2cccc(OCCCCCN)c2)c2nc3ccccc3[nH]2)CC1` (stereo not drawn) [Example 400, 5-{3-[(1H-benzimidazol-2-yl)(1-methylpiperidin-4-yloxy)methyl]phenoxy}pentylamine] returned a Ki or IC50 activity class below 30 nM.
The same measure, in the same setting: next, `CN1CCC(NC(c2cccc(OCCC3=CCC4CC3C4(C)C)c2)c2nc3ccccc3[nH]2)CC1` (stereo not drawn) [Example 181, ((1H-benzimidazol-2-yl)-{3-[2-(6,6-dimethyl-bicyclo[3.1.1]hept-2-en-2-yl)ethoxy]phenyl}methyl)(1-methylpiperidin-4-yl)amine]: below 30 nM; `CCOCCOc1cccc(C(NC2CCN(C)CC2)c2nc3ccccc3[nH]2)c1` (stereo not drawn) [Example 134, {(1H-benzimidazol-2-yl)[3-(2-ethoxyethoxy)phenyl]methyl}(1-methylpiperidin-4-yl)amine]: below 300 nM.
Same read-out and setting: next, `COc1ccccc1-c1cccc(C(OC2CCN(C)CC2)c2nc3ccccc3s2)c1` (stereo not drawn) [Example 96, 2-[(2′-methoxybiphenyl-3-yl)(1-methylpiperidin-4-yloxy)methyl]benzothiazole]: below 300 nM; `Cc1ccc(C(OC2CCN(C)CC2)c2nc3ccccc3[nH]2)cc1` (single isomer, unassigned) [Example 253, 2-[(1-methylpiperidin-4-yloxy)-p-tolylmethyl]-1H-benzimidazole]: below 30 nM.
Same read-out and setting: the value for `CN1CCC(OC(c2nc3ccccc3s2)c2ccccc2F)CC1` (stereo not drawn) [Example 6, 2-[(2-fluorophenyl)(1-methylpiperidin-4-yloxy)methyl]benzothiazole] was below 300 nM.
In turn, `CN1CCC(OC(c2cccc(-c3cccc(CO)c3)c2)c2nc3ccccc3s2)CC1` (stereo not drawn) [Example 54] yielded a Ki or IC50 activity class below 300 nM.
The molecule `CN1CCC(OC(c2cccc(N3CCCC3CN)c2)c2nc3ccccc3s2)CC1` (stereo not drawn) [Example 482] yielded a Ki or IC50 activity class below 30 nM.
`CN1CCC(OC(c2cccc(SC[C@H]3C[C@H]3CN)c2)c2nc3ccccc3[nH]2)CC1` (stereo partly drawn) [Example 494] came in with a Ki or IC50 activity class below 30 nM.
The molecule `CCSc1cccc(C(OC2CCN(C)CC2)c2nc3ccccc3s2)c1` (stereo not drawn) [Example 159, 2-[(3-ethylsulfanylphenyl)(1-methylpiperidin-4-yloxy)methyl]benzothiazole] had a Ki or IC50 activity class below 30 nM.
On the same count and under the same terms, next, `CN1CCC(OC(c2cccc(SCCn3ccnn3)c2)c2nc3ccccc3s2)CC1` (stereo not drawn) [Example 241, 2-{(1-methylpiperidin-4-yloxy)[3-(2-[1,2,3]triazol-1-yl-ethylsulfanyl)phenyl]methyl}benzothiazole]: below 300 nM; `CN1CCC(OC(c2nc3cccc(F)c3[nH]2)c2cc(OC(F)(F)F)ccc2F)CC1` (stereo not drawn) [Example 529]: below 300 nM; `CN1CCC(OC(c2cccc(CCc3c[nH]cn3)c2)c2nc3ccccc3[nH]2)CC1` (stereo not drawn) [Example 412, 2-[{3-[2-(1H-imidazol-4-yl)ethyl]phenyl}(1-methylpiperidin-4-yloxy)methyl]-1H-benzimidazole]: below 1000 nM.
As to `CCSc1cc(C(OC2CCN(C)CC2)c2nc3ccccc3[nH]2)ccc1C` (stereo not drawn) [Example 274, 2-[(3-ethylsulfanyl-4-methylphenyl)(1-methylpiperidin-4-yloxy)methyl]-1H-benzimidazole], the Ki or IC50 activity class was below 300 nM.
The same measure, in the same setting: the value for `CC(=O)COCC#Cc1cccc(C(OC2CCN(C)CC2)c2nc3ccccc3s2)c1` (stereo not drawn) [Example 275, 1-(3-{3-[benzothiazol-2-yl(1-methylpiperidin-4-yloxy)methyl]phenyl}prop-2-ynyloxy)-propan-2-one] was below 300 nM.
Where the note is “human H4 receptor, evaluated in the GTPγ[35S] assay or in the [3H]histamine binding assay (not stated which per compound), Ki or IC50 class”, `CN1CCC(OC(c2cccc(N3CCC(F)C3)c2)c2nc3ccccc3s2)CC1` (stereo not drawn) [Example 454] showed a Ki or IC50 activity class below 30 nM.
Consider `Cc1ccc(C(OC2CCN(C)CC2)c2nc3ccccc3s2)s1` (stereo not drawn) [Example 19, 2-[(1-methylpiperidin-4-yloxy)(5-methylthiophen-2-yl)methyl]benzothiazole], for which the Ki or IC50 activity class is below 300 nM.
Regarding `CN1CCC(OC(c2cccc(N3CCC(F)C3)c2)c2nc3ccccc3s2)CC1` (stereo not drawn) [Example 430, 2-[[3-(3-fluoropyrrolidin-1-yl)phenyl](1-methylpiperidin-4-yloxy)methyl]benzothiazole], the Ki or IC50 activity class is below 30 nM.
On to `CN1CCC(OC(c2cccc(SCCCCCN)c2)c2nc3ccccc3[nH]2)CC1` (stereo not drawn) [Example 381, 5-{3-[(1H-benzimidazol-2-yl)(1-methylpiperidin-4-yloxy)methyl]phenylsulfanyl}pentylamine], for which the Ki or IC50 activity class was below 30 nM.
Still for that read-out and setting: the value for `CN1CCC(OC(c2cccc(C#CCN)c2)c2nc3ccccc3s2)CC1` (stereo not drawn) [Example 296, 3-{3-[benzothiazol-2-yl(1-methylpiperidin-4-yloxy)methyl]phenyl}prop-2-ynylamine] was below 300 nM.
In turn, `CN1CCC(OC(c2cccc(OC3CC4CNCC4C3)c2)c2nc3ccccc3s2)CC1` (stereo not drawn) [Example 466] showed a Ki or IC50 activity class below 30 nM.
Take `CCOCCn1c(C(OC2CCN(C)CC2)c2cccc(I)c2)nc2ccccc21` (stereo not drawn) [Example 497, 1-(2-ethoxyethyl)-2-[(3-iodophenyl)(1-methylpiperidin-4-yloxy)methyl]-1H-benzimidazole]: the Ki or IC50 activity class is below 1000 nM.
Still for that read-out and setting: next, `CN1CCC(OC(c2cccc(C=CCN)c2)c2nc3ccccc3[nH]2)CC1` (stereo not drawn) [Example 488]: below 1000 nM; `CN1CCC(OC(c2ccc3c(c2)CCO3)c2nc3ccccc3s2)CC1` (stereo not drawn) [Example 32, 2-[(2,3-dihydrobenzofuran-5-yl)(1-methylpiperidin-4-yloxy)methyl]benzothiazole]: below 300 nM; `CN1CCC(OC(c2cccc(SCCN)c2)c2nc3ccccc3[nH]2)CC1` (stereo not drawn) [Example 249, 2-{3-[(1H-benzimidazol-2-yl)(1-methylpiperidin-4-yloxy)methyl]phenylsulfanyl}ethylamine]: below 300 nM.
Regarding `CN1CCC(OC(c2cccc(-c3ccccc3)c2)c2nc3ccccc3[nH]2)CC1` (stereo not drawn) [Example 81, 2-[biphenyl-3-yl(1-methylpiperidin-4-yloxy)methyl]-1H-benzimidazole], the Ki or IC50 activity class is below 300 nM.
Same read-out and setting: next, `CC(C)NC(=S)NCCSc1cccc(C(OC2CCN(C)CC2)c2nc3ccccc3[nH]2)c1` (stereo not drawn) [Example 347, 1-(2-{3-[(1H-benzimidazol-2-yl)(1-methylpiperidin-4-yloxy)methyl]phenylsulfanyl}ethyl)-3-isopropylthiourea]: below 1000 nM.
The molecule `CN1CCC(OC(c2cccc(C=CCCCN)c2)c2nc3ccccc3[nH]2)CC1` (stereo not drawn) [Example 421, 5-{3-[(1H-benzimidazol-2-yl)(1-methylpiperidin-4-yloxy)methyl]phenyl}pent-4-enylamine] had a Ki or IC50 activity class below 30 nM.
Still for that read-out and setting: next, `CN1CCC(OC(c2cccc(OCc3ccco3)c2)c2nc3ccccc3s2)CC1` (stereo not drawn) [Example 267, 2-[[3-(furan-2-ylmethoxy)phenyl](1-methylpiperidin-4-yloxy)methyl]benzothiazole]: below 30 nM.
The same measure, in the same setting: next, `CCn1c(C(OC2CCN(C)CC2)c2cccc(C#CCCCCN)c2)nc2ccccc21` (stereo not drawn) [Example 503]: below 300 nM; `CN1CCC(OC(c2cccc(SCC=CCN)c2)c2nc3ccccc3[nH]2)CC1` (stereo not drawn) [Example 473]: below 30 nM.
Molecule `CN1CCC(OC(c2cccc(SCCc3cnccn3)c2)c2nc3ccccc3s2)CC1` (stereo not drawn) [Example 233, 2-{(1-methylpiperidin-4-yloxy)[3-(2-pyrazin-2-yl-ethylsulfanyl)phenyl]methyl}benzothiazole] had a Ki or IC50 activity class below 300 nM.
On the same count and under the same terms, next, `Cc1cc(F)c(C(OC2CCN(C)CC2)c2nc3ccccc3s2)c(F)c1` (stereo not drawn) [Example 531]: below 30 nM.
In turn, `CN1CCC(OC(c2cccc(SCCO)c2)c2nc3ccccc3[nH]2)CC1` (stereo not drawn) [Example 157, 2-{3-[(1H-benzimidazol-2-yl)(1-methylpiperidin-4-yloxy)methyl]phenylsulfanyl}ethanol] showed a Ki or IC50 activity class below 300 nM.
On the same count and under the same terms, the value for `CN1CCC(OC(c2cccc(-c3cccnc3)c2)c2nc3ccccc3s2)CC1` (stereo not drawn) [Example 63, 2-[(1-methylpiperidin-4-yloxy)(3-pyridin-3-ylphenyl)methyl]benzothiazole] was below 300 nM; that for `COC(=O)CSc1cccc(C(OC2CCN(C)CC2)c2nc3ccccc3[nH]2)c1` (stereo not drawn) [Example 154, {3-[(1H-benzimidazol-2-yl)(1-methylpiperidin-4-yloxy)methyl]phenylsulfanyl}acetic acid methyl ester] was below 300 nM.
